Results taken from patent publication US9895342B2, “Cannabinoids for use in the treatment of neuropathic pain” (GW Pharma Limited, priority 2011, dated 2018).

Experiments:
SNI mice [1] = assay: Mechanical allodynia (Dynamic Plantar Aesthesiometer, paw withdrawal threshold) in spared nerve injury mice; assay type: in vivo; details: for MECHANICAL WITHDRAWAL THRESHOLD: SNI mice; for overall efficacy, mechanical withdrawal: both of the doses tested (2.5 and 5 mg/kg); for ability to treat neuropathic pain compared with CBD: mechanical withdrawal data; for mechanical withdrawal, course over time: 5.0 mg/kg, day 7 to day 14
Method: (§1) Peripheral neuropathic pain is produced by multiple etiological factors that initiate a number of diverse mechanisms at different sites and in different disease states. Spared nerve injury (SNI) consists of partial ligation and transaction of the sciatic nerve which evolves in neuropathic pain whose typical manifestations are represented by thermal hyperalgesia and tactile allodynia.
(§2) Chronic pain symptoms are measured through changes in thermoceptive responses (which is indicative of thermal hyperalgesia) using Plantar Test Apparatus (Ugo Basile, Varese, Italy) and in mechanical paw withdrawal threshold (which is indicative of mechanical allodynia) by a Dynamic Plantar Aesthesiometer (Ugo Basile, Varese, Italy). Nociceptive responses were measured before and after surgery in groups of mice differently treated (vehicle or drugs different combinations).
(§3) The cannabinoids tested were CBG, CBC, CBDV, and THCV. […] The cannabinoids were prepared from whole plant extracts of cannabis plants which had been purified. The cannabinoids were dissolved in ringer/0.5% dimethyl sulfoxide (DMSO), for intraperitoneal (i.p.) administration.
(§4) Male CD-1 mice (35-40 g) were housed, 3 per cage, under controlled illumination (12:12 h light:dark cycle; light on 06.00 h) and environmental conditions (room temperature 20-22° C., humidity 55-60%) for at least 1 week before the commencement of experiments. Mouse chow and tap water were available ad libitum. The experimental procedures were approved by the Ethic Committee of the Second University of Naples. Animal care was in compliance with the IASP and European Community (E.C. L358/1 18/12/86) guidelines on the use and protection of animals in experimental research. All efforts were made to minimize animal suffering and to reduce the number of animals used.
(§5) Behavioural testing was performed before surgery to establish a baseline for comparison with post-surgical values. Mononeuropathy was induced according to the method of Bourquin and Decosterd (2006).
(§6) Mice were anaesthetized with sodium pentobarbital (60 mg/kg i.p.). The right hindlimb was immobilized in a lateral position and slightly elevated. Incision was made at mid-thigh level using the femur as a landmark. The sciatic nerve was exposed at mid-thigh level distal to the trifurcation and freed of connective tissue; the three peripheral branches (sural, common peroneal, and tibial nerves) of the sciatic nerve were exposed without stretching nerve structures.
(§7) Both tibial and common peroneal nerves were ligated and transacted together. A micro-surgical forceps with curved tips was delicately placed below the tibial and common peroneal nerves to slide the thread (5.0 silk, Ethicon, Johnson, and Johnson Intl, Brussels, Belgium) around the nerves. A tight ligation of both nerves was performed. The sural nerve was carefully preserved by avoiding any nerve stretch or nerve contact with surgical tools. Muscle and skin were closed in two distinct layers with silk 5.0 sutures.
(§8) Intense, reproducible and long-lasting thermal hyperalgesia and mechanical allodynia-like behaviors are measurable in the non-injured sural nerve skin territory. The SNI model offers the advantage of a distinct anatomical distribution with an absence of co-mingling of injured and non-injured nerve fibers distal to the lesion such as the injured and non-injured nerves and territories can be readily identified and manipulated for further analysis (i.e. behavioral assessment).
(§9) The sham procedure consisted of the same surgery without ligation and transection of the nerves.
(§10) The groups of mice were divided as follows, each cannabinoid tested has its own group of mice:
(§11) The cannabinoids were dosed daily for 14 days. Doses for all cannabinoids tested were: 2.5 and 5.0 mg/Kg. Vehicle solution was 0.5% DMSO in ringer solution.
Mechanical allodynia was measured by using Dynamic Plantar Anesthesiometer (Ugo Basile, Varese, Italy). […]

SNI mice [2] = assay: Thermal hyperalgesia (Plantar Test Apparatus, paw withdrawal latency) in spared nerve injury mice; assay type: in vivo; details: for dose-dependence of effect on thermal withdrawal latency: 2.5 vs 5 mg/kg; for ability to treat neuropathic pain compared with CBD: thermal withdrawal data
Method: as §1, §2, §3, §4, §5, §6, §7, §8, §9, §10, §11
Thermal hyperalgesia was evaluated by using a Plantar Test Apparatus (Ugo Basile, Varese, Italy). […]

[3] = system: chronic constriction injury of the rat sciatic nerve; details: administered as a purified compound; Costa et al., 2004; cited from earlier work
patients = details: cited from earlier work
[4] = SNI mice, 2.5 mg/kg i.p. daily, DAY 3
[5] = SNI mice, 2.5 mg/kg i.p. daily, DAY 7
[6] = SNI mice, 2.5 mg/kg i.p. daily, DAY 14
[7] = SNI mice, 5 mg/kg i.p. daily, DAY 3
[8] = SNI mice, 5 mg/kg i.p. daily, DAY 7
[9] = SNI mice, 5 mg/kg i.p. daily, DAY 14

SMILES | MECHANICAL WITHDRAWAL THRESHOLD (SNI mice [1]; 2.5 mg/kg i.p. daily, DAY 3) | MECHANICAL WITHDRAWAL THRESHOLD (SNI mice [1]; 2.5 mg/kg i.p. daily, DAY 7) | MECHANICAL WITHDRAWAL THRESHOLD (SNI mice [1]; 2.5 mg/kg i.p. daily, DAY 14) | MECHANICAL WITHDRAWAL THRESHOLD (SNI mice [1]; 5 mg/kg i.p. daily, DAY 3) | MECHANICAL WITHDRAWAL THRESHOLD (SNI mice [1]; 5 mg/kg i.p. daily, DAY 7) | MECHANICAL WITHDRAWAL THRESHOLD (SNI mice [1]; 5 mg/kg i.p. daily, DAY 14) | overall efficacy, mechanical withdrawal (SNI mice [1]) | ability to treat neuropathic pain compared with CBD (SNI mice [1]) | overall efficacy, thermal withdrawal (SNI mice [2]; 2.5 mg/kg) | THERMAL WITHDRAWAL LATENCY (SNI mice [2]; 5.0 mg/kg, day 3) | dose-dependence of effect on thermal withdrawal latency (SNI mice [2]) | THERMAL WITHDRAWAL LATENCY (SNI mice [2]; [4]) | THERMAL WITHDRAWAL LATENCY (SNI mice [2]; [5]) | THERMAL WITHDRAWAL LATENCY (SNI mice [2]; [6]) | THERMAL WITHDRAWAL LATENCY (SNI mice [2]; [7]) | THERMAL WITHDRAWAL LATENCY (SNI mice [2]; [8]) | THERMAL WITHDRAWAL LATENCY (SNI mice [2]; [9]) | ability to treat neuropathic pain compared with CBD (SNI mice [2]) | mechanical withdrawal, course over time (SNI mice [1]) | overall efficacy, thermal withdrawal (SNI mice [2]; 5.0 mg/kg) | other results
CCCCCc1cc(O)c(C/C=C(\C)CCC=C(C)C)c(O)c1 [CBG, cannabigerol] | 3.4 g | 6.1 g | 7.8 g | 6.0 g | 6.1 g | 7.8 g | good efficacy | superior to CBD | highest thermal withdrawal latency of all the cannabinoids | able to increase the amount of time before the animal withdrew its paw | do not appear to be dose-dependent | 5.5 s | 5.4 s | 7.0 s | 7.8 s | 7.6 s | 7.5 s | superior to CBD | – | – | THERMAL WITHDRAWAL LATENCY (SNI mice [2]; 2.5 mg/kg, day 3): increase in the amount of thermal withdrawal latency
C=C(C)[C@@H]1CCC(C)=C[C@H]1c1c(O)cc(CCCCC)cc1O [CBD, cannabidiol, reference compound] | 2.2 g | 4.8 g | 5.2 g | 5.0 g | 8.6 g | 5.3 g | relatively ineffective | – | relatively ineffective | able to increase the amount of time before the animal withdrew its paw | do not appear to be dose-dependent | 3.5 s | 4.2 s | 5.6 s | 5.8 s | 7.0 s | 7.5 s | – | large increase at day 7; however this latency decreased again at the 14 day time point | – | relief of neuropathic pain [3]: can partially relieve neuropathic pain
NC(=O)N1c2ccccc2C=Cc2ccccc21 [carbamezepine] | – | – | – | – | – | – | – | – | – | – | – | – | – | – | – | – | – | – | – | – | decrease in white blood cell count (patients; in 7% of patients): 25%; increase in the risk of blood dyscrasias (patients; post-marketing studies, patients taking carbamezepine): five- to eight-fold
C=C(C)[C@@H]1CCC(C)=C[C@H]1c1c(O)cc(CCC)cc1O [CBDV, cannabidivarin] | 6.8 g | 7.0 g | 7.8 g | 6.7 g | 6.6 g | 7.7 g | highest mechanical withdrawal latency of all the cannabinoids | superior to CBD | good efficacy | – | dose-dependent effects were observed | 3.8 s | 6.4 s | 6.5 s | 4.0 s | 7.2 s | 11.0 s | superior to CBD | – | most effective | mechanical withdrawal latency (SNI mice [1]; 2.5 mg/kg, day 3): dramatic increase; THERMAL WITHDRAWAL LATENCY (SNI mice [2]; 5.0 mg/kg, 14 days): large increase
CCCc1cc(O)c2c(c1)OC(C)(C)[C@@H]1CCC(C)=C[C@@H]21 [THCV, tetrahydrocannabivarin] | 3.0 g | 6.2 g | 7.5 g | 3.2 g | 8.5 g | 9.8 g | good efficacy | superior to CBD | good efficacy | – | do not appear to be dose-dependent | 3.8 s | 9.8 s | 7.6 s | 3.9 s | 10.5 s | 11.9 s | superior to CBD | – | most effective | thermal withdrawal latency, course over time (SNI mice [2]; 2.5 mg/kg, day 7 to day 14): large increase at the day 7 time point which then decreases after a further 7 days; THERMAL WITHDRAWAL LATENCY (SNI mice [2]; 5.0 mg/kg, 14 days): large increase
CCCCCc1cc(O)c2c(c1)OC(C)(CCC=C(C)C)C=C2 (stereo not drawn) [CBC, cannabichromene] | 2.4 g | 4.5 g | 5.0 g | 5.1 g | 9.7 g | 5.2 g | relatively ineffective | – | relatively ineffective | able to increase the amount of time before the animal withdrew its paw | do not appear to be dose-dependent | 3.7 s | 4.8 s | 5.2 s | 6.0 s | 7.0 s | 7.2 s | – | large increase at day 7; however this latency decreased again at the 14 day time point | – | –
